Measured values from patent US7629439B2, “Peptides derived from the protein MMP-2, and the use thereof in antitumoral immunotherapy” (INSERM (Institut National de la Sante et de la Recherche …, priority 2003, dated 2009).

Tested on: T2 cells
Assay: 51Cr release: sensitization of T2 cells to lysis by CTL clone M134.12
Format: cell-based
Conditions: 51Cr-labeled T2 cells, 60 minutes at 37° C. with peptide, effector/target ratio 10/1, 4 hours; compared among four peptides (FIG. 4)
Procedure: These peptides were used to sensitize T2 cells labeled with ^51Cr. These cells were incubated for 60 minutes at 37° C. with various concentrations of each of the peptides to be tested. CTL M134.12 effector cells were then added at an effector cell/target cell ratio of 10/1. The amount of ^51Cr released into the supernatant is measured 4 hours later.
Along the y-axis, the percentage specific lysis.
Along the x-axis, the concentration of peptide LGLPPDVQRV (●) (SEQ ID NO: 2), GLPPDVQRV (▪) (SEQ ID NO: 1), LPPDVQRV (▴) (SEQ ID NO: 3), or GLPPDVQR(X) (SEQ ID NO: 4) in nM.

Q: How did the “sensitizing T2 cells to lysis by the CTL clone M134.12 (percentage specific lysis)” value turn out when “GLPPDVQRV (listed as Homo sapiens) [peptide derived from region 556-593 of the MMP-2 protein, presented by HLA-A*0201]” was run?
A: The value was “most effective”.
